In patent publication US7700584B2 (Hangzhou Minsheng Pharmaceuticals Co., Ltd., priority 2004, dated 2010):
Where a name gives a salt, the structure may show the parent alone. Read-outs that look alike come from different tables or passages of the source.

Legend:
Hepatitis B virus (HBV) = assay type: cell-based; details: 200 μg/ml
[1] = test system: oral membrane herpes virus (VSV); assay type: cell-based
[2] = test system: influenza A virus (Jifang 90-15); test: microbe, parasite or virus in culture; assay type: cell-based
[3] = test system: mouse grafted uterine cervix cancer U14; test: Activity against mouse grafted uterine cervix cancer U14; assay type: in vivo, Kunming mice; details: for Tumor weight: X ± SD, n = 10; for inhibitory effect against mouse grafted uterine cervix cancer U14 (in words): all the three concentrations, i.v., female mice
Description: The experiments were performed according to “Guideline for New Drugs (Western medicines) in Pre-clinical Stages” issued by Bureau of Drug Policy & Administration of the People's Republic of China, and the relevant methods in “Methodology of Pharmaceutical Experiments”, Xu Shuyun et al. ed. 120 male Kunming mice weighting […] were allowed to grow 3 days. No abnormality was observed. The mice were routinely inoculated in oxter with mouse sarcoma S-180, and weighted 4 hrs. after inoculation. The mice were randomly divided into 12 groups, 10 mice/group. Group 1 was given 0.3 ml of physiological saline as negative control; Group 2 was given 5-FU as positive control, 0.6 mg/mouse; Group 3 was given hydroxycamptothecine as positive control, 0.02 mg/mouse. Groups 4, 5 and 6 were injected with 10% Compound 6, 0.4 ml/mouse, 0.2 ml/mouse, and 0.1 ml/mouse, respectively. Groups 7, 8 and 9 were injected with 10% Compound 8, 0.4 ml/mouse, 0.2 ml/mouse, and 0.1 ml/mouse, respectively. Groups 10, 11, and 12 were injected with 10% Compound 20, 0.4 ml/mouse, 0.2 ml/mouse, and 0.1 ml/mouse, respectively. The tested compounds were administered on the next day after inoculation, once a day on alternate days, 6 doses totally administered. On the next day after the end dose, the mice were weighed and sacrificed. After the tumor was excised, body weight and tumor weight were recorded. The tumor inhibition rate was calculated based on the following formula: [(average tumor weight of the control groups−average tumor weight of the experimental groups)/average tumor weight of the control groups]×100%. The data was processed statistically. The above experiments were repeated three times.
The experiments were identical with the experiments for activity against mouse grafted sarcoma S-180, except the following:
(1) the tumor cell line inoculated was mouse grafted uterine cervix cancer U14;
(2) all the mice were female.

MDCK (dog kidney) cells = test: Toxicity TC50 of the samples in MDCK cells (influenza screening); details: concentration of 50% toxicity
[4] = Solubility in water (observation); assay type: physicochemical
[5] = test system: eight selected tumor cell lines; test: In vitro anti-tumor IC50, summary over the selected tumor cell lines; assay type: cell-based; details: Hela and U-937, also U-937 and HL-60 cell lines
Description: (1) Single cell suspension was seeded into 96-well plates (the cells was diluted in the PRMI-1640 minimum medium to 3×10^4 cells/ml, […] diluted cells/well). […] The experiments were performed in quadruplicate.
(2) The medium was removed. Solutions of the anti-tumor agents (50 compounds) were prepared in a freshly prepared medium at serial concentrations. […] of the solution was added into each well. Incubation was continued for 48 hours.
(3) 20 ug of 2 mg/ml MTT was added into each well, and incubated for 4 hours.
(4) The medium was removed from the well. The microplates were swiftly turned down to throw-off the medium. […] of DMSO was added into each well, and vortexed at room temperature for 10 minutes.
(5) OD value (λ=570 nm) was measured with an Enzyme-Linked Detector.
(6) The graph of cell vitality was plotted, and IC50 was calculated.

[6] = U14, first experiment, 10 mg/kg
[7] = U14, first experiment, 20 mg/kg
[8] = U14, first experiment, 40 mg/kg
[9] = U14, second experiment, 10 mg/kg
[10] = U14, second experiment, 20 mg/kg
[11] = U14, second experiment, 40 mg/kg
[12] = U14, third experiment, 10 mg/kg
[13] = U14, third experiment, 20 mg/kg
[14] = U14, third experiment, 40 mg/kg

In the case of `C=C1CC2(OS(=O)(=O)[O-])OC3(CC2C(C)C)C(C)CCC13.[Na+]` (centres unmarked) [Compound 21, Curcumol sodium sulfonate], the “(Value of the positive control - Measured Value) Value of the positive control × 100%” value (Hepatitis B virus (HBV); decrease of HBeAg relative to positive control) is reported as 92.85%, the “OD450 of HBeAg” value (Hepatitis B virus (HBV); supernatant four days after infection, positive control 1.917, negative 0.057) is reported as 0.137 and the “activity against VSV (in words)” value ([1]; 200 μg/ml) is reported as “had the activity against VSV”. For the same molecule, the “activity against VSV (in words)” value ([1]; first round of the primary screening, 13 samples) was “some activities against VSV”, the IC50 ([2]; Influenza A virus, CPE in MDCK cells) was 47.7 µg/mL and the “SI, influenza A virus” value ([2]; SI = TC50/IC50) was 20.96. The “Average weight(g)-after administration” value [3, 6] was 22.1 g, the “Inhibition rate (%)” value [3, 6] was 52.1% and the “Tumor weight” value [3, 6] was 1.68 ± 0.29 g. The “Average weight(g)-after administration” value [3, 7] was 21.0 g, the “Inhibition rate (%)” value [3, 7] was 56.7% and the “Tumor weight” value [3, 7] was 1.52 ± 0.41 g. For the same molecule, the “Average weight(g)-after administration” value [3, 8] was 21.1 g, the “Inhibition rate (%)” value [3, 8] was 71.8% and the “Tumor weight” value [3, 8] was 0.99 ± 0.31 g. For the same molecule, the “Average weight(g)-after administration” value [3, 9] was 22.5 g, the “Inhibition rate (%)” value [3, 9] was 53.2% and the “Tumor weight” value [3, 9] was 1.59 ± 0.29 g. For the same molecule, the “Average weight(g)-after administration” value [3, 10] was 21.1 g, the “Inhibition rate (%)” value [3, 10] was 57.1% and the “Tumor weight” value [3, 10] was 1.46 ± 0.41 g. The “Average weight(g)-after administration” value [3, 11] was 21.0 g, the “Inhibition rate (%)” value [3, 11] was 73.8% and the “Tumor weight” value [3, 11] was 0.89 ± 0.31 g. The “Average weight (g)-after administration” value [3, 12] was 22.0 g, the “Inhibition rate (%)” value [3, 12] was 54.7% and the “Tumor weight” value [3, 12] was 1.64 ± 0.29 g. The “Average weight (g)-after administration” value [3, 13] was 21.0 g, the “Inhibition rate (%)” value [3, 13] was 58.3% and the “Tumor weight” value [3, 13] was 1.51 ± 0.41 g. For the same molecule, the “Average weight (g)-after administration” value [3, 14] was 20.1 g, the “Inhibition rate (%)” value [3, 14] was 73.7% and the “Tumor weight” value [3, 14] was 0.95 ± 0.31 g. For the same molecule, the “inhibitory effect against mouse grafted uterine cervix cancer U14 (in words)” value [3] was “good inhibitory effect”, the TC50 (MDCK (dog kidney) cells) was greater than 1000 µg/mL and the “solubility in water (in words)” value [4] was “soluble in water”.
For `CC(C)C1CC23OC1(O)CC(=CN1CCNCC1)C2CCC3C` (centres unmarked) [Compound 8, Curcumol piperazine hydrochloride], the “activity to Hela, U-937 and HL-60 cell lines (in words)” value [5] was “excellent activity”, the “Inhibition rate (%)” value [3, 6] was 35.6% and the “Tumor weight” value [3, 6] was 2.26 ± 0.33 g. For the same molecule, the “Inhibition rate (%)” value [3, 7] was 54.4%, the “Tumor weight” value [3, 7] was 1.60 ± 0.39 g and the “Inhibition rate (%)” value [3, 8] was 67.2%. The “Tumor weight” value [3, 8] was 1.15 ± 0.36 g, the “Inhibition rate (%)” value [3, 9] was 38.8% and the “Tumor weight” value [3, 9] was 2.08 ± 0.33 g. For the same molecule, the “Inhibition rate (%)” value [3, 10] was 55.6%, the “Tumor weight” value [3, 10] was 1.51 ± 0.39 g and the “Inhibition rate (%)” value [3, 11] was 64.7%. The “Tumor weight” value [3, 11] was 1.20 ± 0.36 g, the “Inhibition rate (%)” value [3, 12] was 40.1% and the “Tumor weight” value [3, 12] was 2.14 ± 0.33 g. The “Inhibition rate (%)” value [3, 13] was 54.4%, the “Tumor weight” value [3, 13] was 1.65 ± 0.39 g and the “Inhibition rate (%)” value [3, 14] was 65.5%. The “Tumor weight” value [3, 14] was 1.25 ± 0.36 g, the “inhibitory effect against mouse grafted uterine cervix cancer U14 (in words)” value [3] was “good inhibitory effect” and the “inhibition rate against mouse grafted uterine cervix cancer U14” value ([3]; concentration above 40 mg/kg) was “above 60%”. The “Average weight (g)-after administration” value ([3]; mouse, in vivo, 10 mg/kg) was 21.5 g, the “Average weight (g)-after administration” value ([3]; mouse, in vivo, 20 mg/kg) was 21.9 g and the “Average weight(g)-after administration” value ([3]; mouse, in vivo, 20 mg/kg) was 20.9 g. For the same molecule, the “Average weight (g)-after administration” value ([3]; mouse, in vivo, 40 mg/kg) was 21.3 g and the TC50 (MDCK (dog kidney) cells) was 192.45 µg/mL.
